From patent publication US20060194800A1, “Pteridine derivatives as nitric oxide synthase activators” (University of Strathclyde, priority 2005, published 2006)
“Also recorded” adds a separate entry of the source.

What was measured:
rat lungs = experiment: Calcium ionophore-induced pulmonary vasodilation in perfused lungs of rats treated with WSG1002; format: in vivo; conditions: 14.1 mg/kg/day s.c.
Procedure: Rats were maintained in a chamber containing atmospheric air at 550 mbar for 14 days.
A group of normotensive and a group of pulmonary hypertensive rats received daily subcutaneous injections of WSG1002 in a dose of 14.1 mg/kg/day during the time that they were in the hypoxic chamber. Other groups of normotensive and pulmonary hypertensive rats had no drugs and are used as control comparison groups. These studies used lungs from the four groups of rats (1) pulmonary hypertensive and treated with WSG1002, (2) normotensive and treated with WSG1002, (3) pulmonary hypertensive and not treated with WSG1002 (4) normotensive and not treated with WSG1002.
The rats lungs were perfused at constant flow through the pulmonary artery with measurement of perfusion pressure and maintained at 37° C. […]
The lungs were precontracted with the thromboxane A2 mimetic, 9,11-dideoxy-11α,9α-epoxymethanoprostaglandin F2α (U46619, 3×10^−5 M) given as a bolus dose via an injection port. […] Following return to 20% O2, the lungs were precontracted again with a bolus dose of U46619 and relaxation responses to the endothelium-dependent vasorelaxant, calcium ionophore were measured by adding it in increasing doses to the perfusate. The data was plotted as concentration-response curves from which IC50 values were calculated using Biograph program by fitting the curves to the Hill equation y=RMax/(1+(x/EC50)ˆP).

rat pulmonary artery = experiment: Rat pulmonary artery ring relaxation (endogenous tetrahydrobiopterin present); conditions: normal rings, phenylephrine-contracted
Procedure: Rings (5 mm long) of rat pulmonary artery and aorta, were supported on a pair of intraluminal wires at 1 gm tension for one hour and then contracted with their EC50 phenylephrine concentration, which for pulmonary artery was 3.6×10^−8 M (derived from preliminary experiments) and for aorta was 11.8×10^−8 M (from the previously published literature). The rings were then relaxed with carbachol (10 μM). If the relaxation to carbachol was >75%, then the tissues were used to generate dose responses by addition of tetrahydrobiopterin (BH4) or the analogues. Stock BH4 was stored at −20° C. and the dilutions were prepared using saline just before adding the drug into the bath. Solutions of analogues were stored at 4° C. Cumulatively increasing concentrations of the analogues were added to the bath and the extent of relaxation was measured when it had stabilised. Another ring from the same rat was treated in parallel with the solvent for the analogue. The solvent used was NH4OH. The results are shown graphically in FIGS. 1 and 2.

SMILES: CC(=O)C1=Nc2c(nc(N)[nH]c2=O)NC1(C)C [wsg1002, 6-Acetyl-2-amino-7,7-dimethyl-7,8-dihydro-3H-pteridin-4-one]
- IC50 for calcium ionophore relaxation (rat lungs; normotensive rats, untreated 1.5 μM): 1.1 µM
- IC50 for calcium ionophore relaxation (rat lungs; pulmonary hypertensive (hypoxic) rats, untreated 1.7 μM): 1.2 µM
- relaxation of rat pulmonary artery rings (rat pulmonary artery): no action; also recorded: no effect
